Results: ChEMBL document CHEMBL1201862, “PubChem BioAssay data set” (2004)
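Values below derive from 48-hour exposures of cells grown in 96-well plates, with endpoints linearly interpolated between the two concentrations bracketing the appropriate inhibition level. GI50 marks 50% less growth.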 Activity calls are given as the source filed them. No stated cut-off is given here; in the data, active = GI50 up to about 1.1 µM and inactive = higher.

Experiments:
Assay in all cases: inhibition of tumour cell growth, NCI panel, 48 h
HCC 2998 = tested on: HCC 2998
TK-10 = tested on: TK-10
SF-268 = tested on: SF-268
NCI-H460 = tested on: NCI-H460
HOP-62 = tested on: HOP-62
RPMI-8226 = tested on: RPMI-8226
UACC-257 = tested on: UACC-257
A549 = tested on: A549
Malme-3M = tested on: Malme-3M
HOP-92 = tested on: HOP-92
SK-OV-3 = tested on: SK-OV-3
SK-MEL-28 = tested on: SK-MEL-28
A498 = tested on: A498
SK-MEL-5 = tested on: SK-MEL-5
HCT-15 = tested on: HCT-15
OVCAR-4 = tested on: OVCAR-4
IGROV-1 = tested on: IGROV-1
PC-3 = tested on: PC-3
MDA-N = tested on: MDA-N
MDA-MB-231 = tested on: MDA-MB-231

Compound | GI50 (HCC 2998) | GI50 (TK-10) | GI50 (SF-268) | GI50 (NCI-H460) | GI50 (HOP-62) | GI50 (RPMI-8226) | GI50 (UACC-257) | GI50 (A549) | GI50 (Malme-3M) | GI50 (HOP-92) | GI50 (SK-OV-3) | GI50 (SK-MEL-28) | GI50 (A498) | GI50 (SK-MEL-5) | GI50 (HCT-15) | GI50 (OVCAR-4) | GI50 (IGROV-1) | GI50 (PC-3) | GI50 (MDA-N) | GI50 (MDA-MB-231)
CCOc1cc(/C=C/C=C/c2ccc(N(C)C)cc2)[s+]c2ccccc12 | 59.6 µM (inactive) | 33.2 µM (inactive) | 18.4 µM (inactive) | 18.6 µM (inactive) | 7.71 µM (inactive) | 3.2 µM (inactive) | 23.3 µM (inactive) | 11.4 µM (inactive) | 28.9 µM (inactive) | 23.5 µM (inactive) | 34 µM (inactive) | 27.2 µM (inactive) | 28.2 µM (inactive) | 11.8 µM (inactive) | 13.8 µM | 16 µM (inactive) | 21.6 µM (inactive) |  |  | 
C/C(CCN(C)C)=N\OC(=O)c1ccccc1 | > 100 µM (inactive) | > 100 µM (inactive) | > 100 µM (inactive) | > 100 µM (inactive) | > 100 µM (inactive) | > 100 µM (inactive) | > 100 µM (inactive) | > 100 µM (inactive) | > 100 µM (inactive) | > 100 µM (inactive) | > 100 µM (inactive) | > 100 µM (inactive) | > 100 µM (inactive) | > 100 µM (inactive) |  | > 100 µM (inactive) | > 100 µM (inactive) |  |  | 
CC1(C)O[C@H]2OC(CO[Si](C)(C)C(C)(C)C)C(N=[N+]=[N-])[C@H]2O1 (some centres not stated) | 17.8 µM (inactive) | 19.1 µM (inactive) | 20.7 µM (inactive) | 26.2 µM (inactive) | 19.2 µM (inactive) | 13 µM (inactive) | 18 µM (inactive) | 18.2 µM (inactive) | 17.1 µM (inactive) | 23.9 µM (inactive) | 14 µM (inactive) | 24.7 µM (inactive) | 25 µM (inactive) |  | 21.1 µM | 26.3 µM (inactive) | 3.04 µM (inactive) | 20.3 µM (inactive) | 23.7 µM (inactive) | 
c1ccc2c(c1)NC(C1OC3CCCN3C1C1Nc3ccccc3S1)S2 (configuration not stated) | > 100 µM (inactive) | > 100 µM (inactive) | > 100 µM (inactive) | 41.2 µM (inactive) | 97.9 µM (inactive) | 23 µM (inactive) | 48.3 µM (inactive) | > 100 µM (inactive) | > 100 µM (inactive) | > 100 µM (inactive) | > 100 µM (inactive) | > 100 µM (inactive) | > 100 µM (inactive) | 39.6 µM (inactive) | 48.9 µM | 63.4 µM (inactive) | > 100 µM (inactive) | 44.1 µM (inactive) |  | 
O=C1c2ccccc2-c2nc(/C=C/c3ccccc3)cc3c2c1nc1ccccc13 | 20.4 µM (inactive) | 81.8 µM (inactive) | 65 µM (inactive) |  | 16.3 µM (inactive) | 15.1 µM (inactive) | 89.5 µM (inactive) | 30.6 µM (inactive) |  | 26.5 µM (inactive) | 34.1 µM (inactive) | 23.1 µM (inactive) | 60.1 µM (inactive) | 2.32 µM (inactive) | 2.52 µM | 68.7 µM (inactive) | 20.4 µM (inactive) | 4.56 µM (inactive) |  | 24.4 µM (inactive)
COc1cc2c3c(c1OC)Oc1ccc(cc1)CC1c4c(cc(OC)c(OC)c4Oc4ccc(cc4)CC3N(C)CC2)CCN1C (configuration not stated) | 14 µM (inactive) | 22.1 µM (inactive) | 27 µM (inactive) | 18.7 µM (inactive) | 22.4 µM (inactive) | 25.6 µM (inactive) | 13.8 µM (inactive) | 26.2 µM (inactive) | 20.3 µM (inactive) | 32.6 µM (inactive) | 28.2 µM (inactive) | 18.8 µM (inactive) | 0.0169 µM (active) | 16.7 µM (inactive) |  | 13.3 µM (inactive) | 13.4 µM (inactive) |  |  | 
Cc1nc2c(=O)[nH]c(=O)n(C)c2[nH]c1=O.c1ccncc1 | > 100 µM (inactive) | > 100 µM (inactive) | > 100 µM (inactive) | > 100 µM (inactive) | > 100 µM (inactive) | > 100 µM (inactive) | > 100 µM (inactive) | > 100 µM (inactive) | > 100 µM (inactive) | > 100 µM (inactive) | > 100 µM (inactive) | > 100 µM (inactive) | > 100 µM (inactive) | > 100 µM (inactive) | > 100 µM | > 100 µM (inactive) | > 100 µM (inactive) |  |  | 
Cc1c2c(c(C)c3c4c(oc13)CCCC4)C=NCC2 | 21.1 µM (inactive) | 12.1 µM (inactive) | 20.2 µM (inactive) | 15.8 µM (inactive) | 32.2 µM (inactive) | 0.818 µM (active) | 14.7 µM (inactive) | 17 µM (inactive) | 16 µM (inactive) | 11.5 µM (inactive) | 20.7 µM (inactive) | 18.9 µM (inactive) | 17 µM (inactive) | 14.9 µM (inactive) | 13.9 µM | 22.3 µM (inactive) | 13.6 µM (inactive) |  |  | 16.4 µM (inactive)
C[C@@H]1OC(=O)C[C@H]2CC(=O)N(CCC3CN(S(=O)(=O)C(F)(F)F)c4ccccc43)C[C@@H]21 (some centres not stated) | > 100 µM (inactive) |  |  | > 100 µM (inactive) | > 100 µM (inactive) | > 100 µM (inactive) | > 100 µM (inactive) | > 100 µM (inactive) | 82.4 µM (inactive) | > 100 µM (inactive) | > 100 µM (inactive) | > 100 µM (inactive) | > 100 µM (inactive) | > 100 µM (inactive) | > 100 µM | > 100 µM (inactive) | 69.7 µM (inactive) | > 100 µM (inactive) |  | > 100 µM (inactive)
N#CCC(=O)N/N=C1/C(=O)N(c2cc(Cl)ccc2Cl)C(=O)C(=O)C1c1nc2ccccc2s1 (configuration not stated) | > 100 µM (inactive) | 81.8 µM (inactive) | 88.3 µM (inactive) | 95.7 µM (inactive) | > 100 µM (inactive) | 56.8 µM (inactive) | > 100 µM (inactive) | > 100 µM (inactive) | > 100 µM (inactive) | 19.8 µM (inactive) | > 100 µM (inactive) | > 100 µM (inactive) | > 100 µM (inactive) | > 100 µM (inactive) | > 100 µM | > 100 µM (inactive) | > 100 µM (inactive) |  |  | 
CN1CCCC2(CCCc3ccccc32)C1 (configuration not stated) | > 100 µM (inactive) | > 100 µM (inactive) | > 100 µM (inactive) | > 100 µM (inactive) | > 100 µM (inactive) | > 100 µM (inactive) | > 100 µM (inactive) | > 100 µM (inactive) | > 100 µM (inactive) | 69.5 µM (inactive) | > 100 µM (inactive) | > 100 µM (inactive) | > 100 µM (inactive) | > 100 µM (inactive) | > 100 µM | > 100 µM (inactive) | > 100 µM (inactive) |  |  | 
CCOC(=O)C(NC(=O)Nc1ccccc1F)(OC)C(F)(F)F (configuration not stated) | > 100 µM (inactive) | > 100 µM (inactive) | > 100 µM (inactive) |  |  | > 100 µM (inactive) | > 100 µM (inactive) | > 100 µM (inactive) |  |  | > 100 µM (inactive) | > 100 µM (inactive) | > 100 µM (inactive) | > 100 µM (inactive) | > 100 µM |  | > 100 µM (inactive) | > 100 µM (inactive) | > 100 µM (inactive) | 
